Experimental data as given in article PMC11823594, “Durlobactam in combination with β-lactams to combat Mycobacterium abscessus” (Antimicrobial Agents and Chemotherapy, 2024).
Converted amounts (≈) assume the structure as drawn. Like-named read-outs stand apart in the source and are kept apart here.

Columns and labels:
Mab ATCC 19977 strain = test: MIC testing (CLSI, Middlebrook 7H9 broth); format: cell-based, Mycobacterium abscessus; settings: for MIC: Mycobacteroides abscessus, ATCC19977, Mab ATCC 19977, no BLI added, 30°C, 48 h, read-out: MIC, alone; for MIC, + DUR + SUL (1:1): durlobactam, sulbactam and test β-lactam all at the same concentration; for MIC, + AVI (4 mg/L): fixed avibactam 4 mg/L; for MIC, + DUR + SUL (1 mg/L): fixed durlobactam 1 mg/L + sulbactam 1 mg/L
PBP B [1] = biological target: T1, PBP B (Mycobacterium abscessus, UniProt B1MP31); test: Steady-state kinetics with nitrocefin (Ki,app); format: biochemical; settings: for Ratio of fCss,avg to Ki,app, PBP B: in parentheses in Table 3;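 on Ratio of fCss,avg to Ki,app, PBP B: Parenthesised value is the fCss,avg to Ki,app ratio where above 1 means target likely hit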
Procedure: (§1) Steady-state kinetic studies were conducted using purified LDTs and PBPs (LDT1-5, PBP B, PBP-lipo, and DDC) as previously described ([20]). The assays were performed using a BioTek Synergy2 multimode reader in conjunction with Gen5 analysis software. […] To determine reaction velocities, a 0.25 cm path length was employed. The steady-state kinetic parameters (Vmax, kcat, and Km) were obtained by fitting the data to the Henri-Michaelis-Menten equation using a nonlinear least-squares fit in Origin 8.1 software (OriginLab, Northampton, MA). The reaction rate (v) at a given substrate concentration ([S]) was calculated according to the following equations: […]
(§2) Changes in absorbance at 482 nm were measured over a period of 0–30 min for each concentration of β-lactams and BLIs. Data were linearized using a Dixon plot, plotting the inverse changes in absorbance (1/ΔA) against the concentrations of β-lactams and BLIs. The observed Ki,app was determined directly from the Dixon plot, and these values were corrected for substrate concentration and affinity for the LDT using the following equation:
(§3) Ki,app=observed Ki,app/1+[NCF]/Km NCF

LDT3 = LDT3 (Mycobacterium abscessus, UniProt B1MHQ4); test: Mass spectrometry of covalent adduct formation; format: binding; settings: protein:drug 1:20, 2 h; mass accuracy ±5 Da; (−) = no change
Procedure: (§4) Truncated sequences of LDT1-5, DDC, PBP B, and PBP-lipo (Δ1–41) were generated by Celtek Biosciences and cloned into the pET28(a) + vector with a tobacco etch virus (TEV) protease cleavage site before the start codon. Clones were transformed into Escherichia coli BL21 (DE3) and grown to an OD600 of 0.6–0.8. Protein expression was induced with 0.25 mM isopropyl β-d-1-thiogalactopyranoside (IPTG) and incubated for 18 h at 18°C. Cell pellets were collected and stored at −20°C overnight, then resuspended in a buffer containing 50 mM Tris (pH 8.0), 400 mM sodium chloride, and 1 mM Tris (2-carboxyethyl) phosphine hydrochloride (TCEP), followed by sonication and centrifugation. The supernatant was purified using a His Prep FF 16/10 column (GE Healthcare) and eluted with 500 mM imidazole. Eluted protein was dialyzed overnight at 4°C in a buffer with 50 mM Tris (pH 8.0), 150 mM sodium chloride, and 0.5 mM TCEP in the presence of His-tagged TEV protease. To remove the His tag, the mixture was passed over the His Prep FF 16/10 column again.
(§5) The purified proteins listed above were incubated at room temperature with β-lactams or BLIs at a molar ratio of 1:20 for 2 h. The reactions were then quenched with acetonitrile and diluted to 1 mL with 0.1% formic acid in water. Samples were analyzed using a quadrupole time-of-flight (Q-TOF) Waters Synapt-G2-Si electrospray ionization mass spectrometer (ESI-MS) and a Waters Acquity H class ultra-performance liquid chromatography (UPLC) system, equipped with a BEH C18 1.7 µm column (2.1 × 50 mm). The MS was tuned with the following settings: capillary voltage set at 3 kV, sampling cone at 35 V, source offset at 35, source temperature of 100°C, desolvation temperature of 500°C, cone gas flow rate at 100 L/h, desolvation gas flow rate at 800 L/h, and nebulizer set at 6.0. The mobile phases consisted of 0.1% formic acid in water and 0.1% formic acid in 100% acetonitrile, with gradient elution from 10% to 90% of […] over 11 min. The system’s mass accuracy was ±5 Da.

PBP-lipo = biological target: T2, PBP-lipo (Mycobacteroides abscessus, UniProt B1MDC3); test: Bocillin-FL binding assay; settings: 2 h incubation, 1:10 molar ratio
T2 construct: made in house; host or cells: Escherichia coli BL21 (DE3)
Procedure: To analyze the binding of PBP-lipo with β-lactams or BLIs, purified PBP-lipo (4 µg) was incubated with β-lactams or BLIs at a 1:10 molar ratio in a buffer containing 10 mM sodium phosphate (pH 7.4) and 150 mM NaCl. The incubation was carried out for 2 h at room temperature. After the initial incubation, 1 µM Bocillin FL was added to the reaction mixture. The incubation was continued for an additional 3–4 h at 37°C. After incubation, the samples were boiled to denature the proteins. The samples were then subjected to SDS-PAGE. The PBP-lipo:Bocillin complexes were visualized by fluorescence analysis at a wavelength of 488 nm using an Azure 300 gel imaging system. The intensity of the PBP-lipo:Bocillin complex bands was analyzed using GelAnalyzer software. The intensity of the band for PBP-lipo alone (without β-lactams) was set to 1 as the highest intensity. The intensity of each band for PBP-lipo incubated with β-lactams was then normalized by dividing by the intensity of the band for PBP-lipo alone.

PBP B [2] = biological target: T1, PBP B; test: Mass spectrometry of covalent adduct formation; format: binding; settings: protein:drug 1:20, 2 h; mass accuracy ±5 Da; (−) = no change
Procedure: as §4, with “Protein expression was induced with 0.25 mM isopropyl β-d-1-thiogalactopyranoside (IPTG) and incubated for 18 h at 18°C.” left out
as §5

[3] = Predicted average unbound steady-state plasma concentration (fCss,avg) at clinically relevant doses; parameters: species or system human; settings: median unbound average steady-state plasma concentration, continuous infusion; daily dose DUR 4,000, AVI 1,500, IPM 4,000, CFT 1,800, AMX 1,500, SULO 1,000, CXM 1,500, SUL 4,000, TBP 1,800 mg
DDC = DDC (Mycobacteroides abscessus, UniProt B1MDJ1); test: Steady-state kinetics with nitrocefin (Ki,app); format: biochemical; settings: in parentheses in Table 3;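 further: Parenthesised value is the fCss,avg to Ki,app ratio where above 1 means target likely hit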
Procedure: as §1, §2, §3

LDT2 = LDT2 (Mycobacterium abscessus, UniProt B1MMQ4); test: Mass spectrometry of covalent adduct formation; format: binding; settings: protein:drug 1:20, 2 h; mass accuracy ±5 Da; (−) = no change
Procedure: as §4, §5

[4] = nitrocefin at 5 × Km, read-out: Ki,app PBP B (converted)
[5] = read-out: Ki,app PBP B (converted)

T1 sequence (B1MP31 entry or part of it): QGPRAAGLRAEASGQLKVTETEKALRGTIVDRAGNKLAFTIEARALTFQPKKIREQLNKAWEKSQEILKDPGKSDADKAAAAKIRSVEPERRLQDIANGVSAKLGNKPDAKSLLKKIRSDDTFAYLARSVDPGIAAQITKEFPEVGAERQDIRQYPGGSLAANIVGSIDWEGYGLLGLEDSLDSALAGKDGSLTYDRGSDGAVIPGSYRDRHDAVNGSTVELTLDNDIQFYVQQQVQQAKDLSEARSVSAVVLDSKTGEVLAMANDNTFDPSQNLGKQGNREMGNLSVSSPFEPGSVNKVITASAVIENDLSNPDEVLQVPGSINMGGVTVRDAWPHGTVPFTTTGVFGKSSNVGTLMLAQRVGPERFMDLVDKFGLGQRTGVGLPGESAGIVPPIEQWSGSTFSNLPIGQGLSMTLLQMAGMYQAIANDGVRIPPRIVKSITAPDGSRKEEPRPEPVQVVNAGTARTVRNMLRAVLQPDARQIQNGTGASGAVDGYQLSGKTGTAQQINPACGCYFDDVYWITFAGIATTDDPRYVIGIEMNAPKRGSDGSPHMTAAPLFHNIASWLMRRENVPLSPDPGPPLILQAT
T2 sequence (B1MDC3 entry or part of it): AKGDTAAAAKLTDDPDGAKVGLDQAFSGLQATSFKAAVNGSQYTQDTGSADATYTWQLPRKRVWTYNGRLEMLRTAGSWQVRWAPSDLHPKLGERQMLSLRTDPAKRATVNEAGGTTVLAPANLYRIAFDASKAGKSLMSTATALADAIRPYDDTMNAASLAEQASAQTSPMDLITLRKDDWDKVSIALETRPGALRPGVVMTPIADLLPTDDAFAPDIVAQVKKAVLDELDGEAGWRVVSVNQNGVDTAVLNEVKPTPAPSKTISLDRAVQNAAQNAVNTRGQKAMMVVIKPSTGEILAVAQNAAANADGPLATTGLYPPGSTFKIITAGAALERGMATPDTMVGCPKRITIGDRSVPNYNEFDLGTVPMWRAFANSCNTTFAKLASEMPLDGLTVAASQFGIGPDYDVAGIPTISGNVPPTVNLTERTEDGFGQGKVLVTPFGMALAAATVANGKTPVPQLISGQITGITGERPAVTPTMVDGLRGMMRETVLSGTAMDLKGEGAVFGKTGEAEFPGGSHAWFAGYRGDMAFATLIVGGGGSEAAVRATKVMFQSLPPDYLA
Chain of LDT3 (B1MHQ4 entry or part of it): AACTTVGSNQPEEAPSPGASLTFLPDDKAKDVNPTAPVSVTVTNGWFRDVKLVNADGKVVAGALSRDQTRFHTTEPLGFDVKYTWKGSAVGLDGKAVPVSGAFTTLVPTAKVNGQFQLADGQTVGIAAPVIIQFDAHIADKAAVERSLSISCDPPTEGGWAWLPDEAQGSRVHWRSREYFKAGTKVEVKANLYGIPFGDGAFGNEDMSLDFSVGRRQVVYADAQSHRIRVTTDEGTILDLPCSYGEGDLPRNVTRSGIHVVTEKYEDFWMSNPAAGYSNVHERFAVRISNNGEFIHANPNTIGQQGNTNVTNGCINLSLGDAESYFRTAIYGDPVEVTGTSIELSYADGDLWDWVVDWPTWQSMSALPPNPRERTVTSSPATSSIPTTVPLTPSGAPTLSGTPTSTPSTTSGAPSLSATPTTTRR
Chain of LDT2 (B1MMQ4 entry or part of it): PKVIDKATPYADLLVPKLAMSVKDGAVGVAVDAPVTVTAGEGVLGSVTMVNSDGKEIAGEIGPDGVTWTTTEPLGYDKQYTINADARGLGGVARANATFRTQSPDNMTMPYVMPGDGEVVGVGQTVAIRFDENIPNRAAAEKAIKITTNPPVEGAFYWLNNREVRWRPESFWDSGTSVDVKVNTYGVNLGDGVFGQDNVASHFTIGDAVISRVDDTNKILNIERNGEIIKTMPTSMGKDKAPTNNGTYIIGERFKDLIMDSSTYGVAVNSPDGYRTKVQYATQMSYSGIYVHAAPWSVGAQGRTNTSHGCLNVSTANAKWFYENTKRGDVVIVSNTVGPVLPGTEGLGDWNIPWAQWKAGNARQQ
Chain of DDC (B1MDJ1 entry or part of it): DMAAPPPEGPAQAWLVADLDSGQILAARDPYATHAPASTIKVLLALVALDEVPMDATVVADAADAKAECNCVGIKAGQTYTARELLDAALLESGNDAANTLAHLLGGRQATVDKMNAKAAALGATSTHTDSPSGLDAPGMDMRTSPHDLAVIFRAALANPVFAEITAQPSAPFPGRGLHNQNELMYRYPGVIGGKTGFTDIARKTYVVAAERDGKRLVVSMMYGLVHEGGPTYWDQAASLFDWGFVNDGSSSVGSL

Structure (SMILES) | MIC (Mab ATCC 19977 strain) | MIC, + DUR + SUL (1:1) (Mab ATCC 19977 strain) | MIC, + AVI (4 mg/L) (Mab ATCC 19977 strain) | MIC, + DUR + SUL (1 mg/L) (Mab ATCC 19977 strain) | Ki (PBP B [1]) | Observed MW (+ change in mw), LDT3 (44,795) (LDT3) | Binding to PBP-lipo (Bocillin-FL competition) (PBP-lipo) | Observed MW (+ change in mw), PBP B (62,915) (PBP B [2]) | fCss,avg [3] | Ratio of fCss,avg to Ki,app, PBP B (PBP B [1]) | Ki (PBP B [1]; [4]) | Ratio of fCss,avg to Ki,app, DDC (DDC) | Observed MW (+ change in mw), LDT2 (39,216) (LDT2) | Ki (PBP B [1]; [5])
CC1(C)S[C@@H]2[C@H](NC(=O)[C@H](N)c3ccc(O)cc3)C(=O)N2[C@H]1C(=O)O [Amoxicillin, amoxicillin] | 128 µg/mL (≈ 350 µM) | 1 µg/mL | 32 µg/mL | 1 µg/mL | 7.39 µM | 44,794 (−) Da | demonstrated binding to PBP-lipo | 63,280 (+365) Da | 6 mg/L | – | – | – | – | –
NC(=O)[C@@H]1CC[C@@H]2CN1C(=O)N2OS(=O)(=O)O [Avibactam, avibactam] | > 128 µg/mL | – | – | – | – | 44,794 (−) Da | demonstrated binding to PBP-lipo | 63,180 (+265) Da | 5 mg/L | 0.6 | 33.9 µM | 0.1 | 39,482 (+266) Da | –
CO/N=C(\C(=O)N[C@@H]1C(=O)N2C(C(=O)O)=C(COC(N)=O)CS[C@H]12)c1ccco1 [Cefuroxime, cefuroxime] | 4 µg/mL (≈ 9.43 µM) | 1 µg/mL | 4 µg/mL | 2 µg/mL | – | 44,794 (−) Da | demonstrated binding to PBP-lipo | 63,279 (+364) Da | 12 mg/L | 3 (4) | – | 0.05 (240) | 39,597 (+381) Da | 7.07 µM
CC1=C[C@@H]2CN(C(=O)N2OS(=O)(=O)O)[C@@H]1C(N)=O [Durlobactam, durlobactam] | – | – | – | – | – | 44,794 (−) Da | demonstrated binding to PBP-lipo | 63192 (+277) Da | 16 mg/L | 1 | 57.7 µM | 1.6 | 39,492 (+278) Da | –
C[C@@H](O)[C@H]1C(=O)N2C(C(=O)O)=C(SCCN=CN)C[C@H]12 [Imipenem, imipenem] | 8 µg/mL (≈ 26.7 µM) | 2 µg/mL | 4 µg/mL | 4 µg/mL | – | 44,794 (−) Da | demonstrated binding to PBP-lipo | 63,215 (+300) Da | 12 mg/L | 0.4 (27) | – | 1.3 (9) | 39,515 (+299) Da | 1.34 µM
C[C@@H](O)[C@H]1C(=O)N2C(C(=O)O)=C(S[C@H]3CC[S@@+]([O-])C3)S[C@H]12 [Sulopenem, sulopenem] | 1 µg/mL (≈ 2.86 µM) | 0.25 µg/mL | 0.5 µg/mL | 1 µg/mL | – | 45,143 (+349) Da | demonstrated binding to PBP-lipo | 63,264 (+349) Da | 2 mg/L | 0.7 | 8.3 µM | 0.1 | 39,298 (+86) Da | –
C[C@@H](O)[C@H]1C(=O)N2C(C(=O)O)=C(SC3CN(C4=NCCS4)C3)[C@H](C)[C@H]12 [Tebipenem, tebipenem] | 8 µg/mL (≈ 20.9 µM) | 1 µg/mL | 2 µg/mL | 1 µg/mL | – | 44,794 (−) Da | – | – | 1.7 mg/L | 243 | 0.0183 µM | 0.01 | 39,602 (+386) Da | –
